Experimental data as given in patent US9273057B2 (Bristol-Myers Squibb Company, priority 2012, dated 2016).
Where a name gives a salt, the structure may show the parent alone.

Target: CK2A1 (CK2α/β) (Homo sapiens, UniProt P68400)
Experiment: CK2 kinase assay, CK2A1 (CK2α/β)
Type: biochemical
Details: Table A; read-out: CK2A1 (CK2α/β) (IC50)

Chain of CK2A1 (CK2α/β) (P68400 whole entry, species assumed): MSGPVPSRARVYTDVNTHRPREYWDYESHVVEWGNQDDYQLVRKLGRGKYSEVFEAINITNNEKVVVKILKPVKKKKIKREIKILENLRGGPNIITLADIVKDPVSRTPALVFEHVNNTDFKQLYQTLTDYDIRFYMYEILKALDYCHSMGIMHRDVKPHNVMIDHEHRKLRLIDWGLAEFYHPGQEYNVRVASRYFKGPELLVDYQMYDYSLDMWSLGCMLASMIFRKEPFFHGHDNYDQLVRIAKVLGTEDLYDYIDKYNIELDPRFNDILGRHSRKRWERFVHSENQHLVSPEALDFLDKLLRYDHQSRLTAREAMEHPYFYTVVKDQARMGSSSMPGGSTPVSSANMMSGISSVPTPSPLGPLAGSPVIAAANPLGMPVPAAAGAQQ
Chain of CK2A1 (CK2α/β) (P67870 whole entry partner, species assumed): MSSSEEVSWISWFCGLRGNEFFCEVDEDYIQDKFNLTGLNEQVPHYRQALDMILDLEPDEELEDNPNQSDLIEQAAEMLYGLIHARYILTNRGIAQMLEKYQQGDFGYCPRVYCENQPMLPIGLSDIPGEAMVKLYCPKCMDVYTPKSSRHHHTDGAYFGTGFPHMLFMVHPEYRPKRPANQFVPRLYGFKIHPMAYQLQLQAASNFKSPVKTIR

Row | IC50 | Compound
1 | 24.9 nM | CCNc1nc(Nc2cc(C#N)cc(N3CC[C@@H](NC(=O)OC)[C@H](OC(=O)CC[C@H](N)C(=O)OC)C3)c2Cl)nn2c(C#N)cnc12 [Example 814, (S)-5-((3R,4R)-1-(2-chloro-5-cyano-3-((7-cyano-4-(ethylamino)imidazo[2,1-f][1,2,4]triazin-2-yl)amino)phenyl)-4-((methoxycarbonyl)amino)piperidin-3-yl) 1-methyl 2-aminopentanedioate hydrochloride]
2 | 0.73 nM | N#Cc1cc(Nc2nc(NC3CC3)c3ncc(C#N)n3n2)c(Cl)c(N2CCN3CC[C@H](O)[C@H]3C2)c1 (racemic) [Example 438, (+/−)-2-((2-chloro-5-cyano-3-((8R,8aS)-8-hydroxyhexahydropyrrolo[1,2-a]pyrazin-2(1H)-yl)phenyl)amino)-4-(cyclopropylamino)imidazo[2,1-f][1,2,4]triazine-7-carbonitrile]
3 | 0.49 nM | N#Cc1cc(C=O)c(Cl)c(Nc2nc(NC3CC3)c3ncc(C#N)n3n2)c1 [Example 400, 2-((2-chloro-5-cyano-3-formylphenyl)amino)-4-(cyclopropylamino)imidazo[2,1-f][1,2,4]triazine-7-carbonitrile]
4 | 0.66 nM | CN1CCN(C(=O)N[C@@H]2CCN(c3cc(C#N)cc(Nc4nc(NC5CC5)c5ncc(C#N)n5n4)c3Cl)C[C@H]2O)CC1 (racemic) [Example 182, (+/−)-N-((3R,4R)-1-(2-chloro-5-cyano-3-((7-cyano-4-(cyclopropylamino)imidazo[2,1-f][1,2,4]triazin-2-yl)amino)phenyl)-3-hydroxypiperidin-4-yl)-4-methylpiperazine-1-carboxamide]
5 | 0.7 nM | COCCN1CCC(N2CCN(c3cc(C#N)cc(Nc4nc(NC5CC5)c5ncc(C#N)n5n4)c3Cl)CC2)CC1 [Example 63, 2-((2-chloro-5-cyano-3-(4-(1-(2-methoxyethyl)-4-piperidinyl)-1-piperazinyl)phenyl)amino)-4-(cyclopropylamino) imidazo[2,1-f][1,2,4] triazine-7-carbonitrile]
6 | 3.2 nM | N#Cc1cc(Nc2nc(NC3CC3)c3ncc(C#N)n3n2)c(Cl)c(N2CCN(CC3(O)COC3)CC2)c1 [Example 580, 2-[(2-chloro-5-cyano-3-{4-[(3-hydroxyoxetan-3-yl)methyl]piperazin-1-yl}phenyl)amino]-4-(cyclopropylamino)imidazo [2,1-f][1,2,4]triazine-7-carbonitrile]
7 | 3 nM | COC(=O)N1CC2CN(c3cc(C#N)cc(Nc4nc(NC5CC5)c5ncc(C#N)n5n4)c3Cl)CC2C1 (centres unmarked) [Example 462, methyl 5-(2-chloro-5-cyano-3-((7-cyano-4-(cyclopropylamino)imidazo[2,1-f][1,2,4]triazin-2-yl)amino)phenyl)hexahydro-pyrrolo[3,4-c]pyrrole-2(1H)-carboxylate]
8 | 0.64 nM | CS(=O)(=O)N1CCN(c2cc(C#N)cc(Nc3nc(NC4CC4)c4ncc(C#N)n4n3)c2Cl)CC1 [Example 4, 2-((2-chloro-5-cyano-3-(4-(methylsulfonyl)-1-piperazinyl)phenyl)amino)-4-(cyclopropylamino)imidazo [2,1-f][1,2,4]triazine-7-carbonitrile]
9 | 1.7 nM | N#Cc1cc(Nc2nc(NC3CC3)c3ncc(C#N)n3n2)c(Cl)c(N2CCC3(CC2)CN(CC(=O)N2CCNCC2)C3)c1 [Example 804]
10 | 4.4 nM | COC(=O)NC1CCN(c2cc(C#N)cc(Nc3nc(NC4CC4)c4ncc(C#N)n4n3)c2Cl)CC1(C)C (centres unmarked) [Example 286, methyl (1-(2-chloro-5-cyano-3-((7-cyano-4-(cyclopropylamino)imidazo[2,1-f][1,2,4]triazin-2-yl)amino)phenyl)-3,3-dimethyl-4-piperidinyl)carbamate]
11 | 0.62 nM | N#Cc1cc(CN2CCC(O)CC2)c(Cl)c(Nc2nc(NC3CC3)c3ncc(C#N)n3n2)c1 [Example 672, 2-((2-chloro-5-cyano-3-((4-hydroxypiperidin-1-yl)methyl)phenyl)amino)-4-(cyclopropylamino)imidazo[2,1-f][1,2,4]triazine-7-carbonitrile]
12 | 2.85 nM | CCNc1nc(Nc2cc(C#N)cc(N3CCN(CC4(C)COC4)CC3)c2Cl)nn2c(C#N)cnc12 [Example 603, 2-[(2-chloro-5-cyano-3-{4-[(3-methyloxetan-3-yl)methyl]piperazin-1-yl}phenyl)amino]-4-(ethylamino)imidazo[2,1-f] [1,2,4]triazine-7-carbonitrile]
13 | 2.35 nM | CCNc1nc(-n2cc([C@@H]3C[C@H]3CN(C)C)c3ccc(C#N)cc32)nn2c(C#N)cnc12 (single isomer, unassigned) [Example 775]
14 | 0.76 nM | N#Cc1cc(Nc2nc(NC3CC3)c3ncc(C#N)n3n2)c(Cl)cc1NC1CCN(C2COC2)CC1 [Example 411, 2-((2-chloro-5-cyano-4-((1-(oxetan-3-yl)piperidin-4-yl)amino)phenyl)amino)-4-(cyclopropylamino)imidazo[2,1-f][1,2,4]triazine-7-carbonitrile]
15 | 0.99 nM | N#Cc1cc(Nc2nc(NC3CC3)c3ncc(C#N)n3n2)c(F)cc1F [Example 414, 2-((5-cyano-2,4-difluorophenyl)amino)-4-(cyclopropylamino)imidazo[2,1-f][1,2,4]triazine-7-carbonitrile]
16 | 2 nM | CC1(CN2CCC(c3cc(C#N)cc(Nc4nc(NC5CC5)c5ncc(C#N)n5n4)c3Cl)CC2)COC1 [Example 225, 2-((2-chloro-5-cyano-3-(1-((3-methyl-3-oxetanyl)methyl)-4-piperidinyl)phenyl)amino)-4-(cyclopropylamino)imidazo[2,1-f][1,2,4]triazine-7-carbonitrile]
17 | 0.76 nM | N#Cc1cnc2c(NC3CC3)nc(Nc3cc(C(F)F)cc(N4CC(N5CCOCC5)C4)c3Cl)nn12 [Example 279, 2-((2-chloro-5-(difluoromethyl)-3-(3-(4-morpholinyl)-1-azetidinyl)phenyl)amino)-4-(cyclopropylamino)imidazo[2,1-f][1,2,4]triazine-7-carbonitrile]
18 | 0.78 nM | N#Cc1cc(Nc2nc(NC3CC3)c3ncc(C#N)n3n2)c(Cl)c(C2CCN(C3CNC3)CC2)c1 [Example 318, 2-((3-(1-(azetidin-3-yl)piperidin-4-yl)-2-chloro-5-cyanophenyl)amino)-4-(cyclopropylamino)imidazo[2,1-f][1,2,4]triazine-7-carbonitrile]
19 | 2.27 nM | CN1CCC(N2CC(F)(c3cc(C#N)cc(Nc4nc(NC5CC5)c5ncc(C#N)n5n4)c3Cl)C2)CC1 [Example 658, 2-((2-chloro-5-cyano-3-(3-fluoro-1-(1-methylpiperidin-4-yl)azetidin-3-yl)phenyl)amino)-4-(cyclopropylamino)imidazo[2,1-f][1,2,4]triazine-7-carbonitrile]
20 | 0.66 nM | N#Cc1cc(Nc2nc(NC3CC3)c3ncc(C#N)n3n2)c(Cl)cc1CCCCN1CCOCC1 [Example 572, 2-((2-chloro-5-cyano-4-(4-morpholinobutyl)phenyl)amino)-4-(cyclopropylamino)imidazo[2,1-f][1,2,4]triazine-7-carbonitrile]
21 | 0.94 nM | CC(C)(O)CC(=O)N1CC(N2CCN(c3cc(C#N)cc(Nc4nc(NC5CC5)c5ncc(C#N)n5n4)c3Cl)CC2)C1 [Example 490, 2-[(2-chloro-5-cyano-3-{4-[1-(3-hydroxy-3-methylbutanoyl)azetidin-3-yl]piperazin-1-yl}phenyl)amino]-4-(cyclopropylamino)imidazo[2,1-f][1,2,4]triazine-7-carbonitrile]
22 | 0.97 nM | CC1(N2CCOCC2)CCN(c2cc(C(F)F)cc(Nc3nc(NC4CC4)c4ncc(C#N)n4n3)c2Cl)CC1 [Example 244, 2-((2-chloro-5-(difluoromethyl)-3-(4-methyl-4-(4-morpholinyl)-1-piperidinyl)phenyl)amino)-4-(cyclopropylamino)imidazo[2,1-f][1,2,4]triazine-7-carbonitrile]
23 | 0.72 nM | CN1CCN(CCCc2cc(C#N)cc(Nc3nc(NC4CC4)c4ncc(C#N)n4n3)c2Cl)CC1 [Example 577, 2-((2-chloro-5-cyano-3-(3-(4-methylpiperazin-1-yl)propyl)phenyl)amino)-4-(cyclopropylamino)imidazo[2,1-f][1,2,4]triazine-7-carbonitrile]
24 | 0.49 nM | CC(C)(O)CC(=O)N1CCN(c2cc(C#N)cc(Nc3nc(NC4CC4)c4ncc(C#N)n4n3)c2Cl)CC1 [Example 91]
25 | 1.31 nM | N#Cc1cc(CNCCN2CCOCC2)c(Cl)c(Nc2nc(NC3CC3)c3ncc(C#N)n3n2)c1 [Example 466, 2-{[2-chloro-5-cyano-3-({[2-(morpholin-4-yl)ethyl]amino}methyl)phenyl]amino}-4-(cyclopropylamino)imidazo[2,1-f][1,2,4]triazine-7-carbonitrile]
26 | 1.04 nM | N#Cc1cc(Nc2nc(NC3CC3)c3ncc(C#N)n3n2)c(Cl)c(N2CC[C@H]3[C@H](CCN3C3CS(=O)(=O)CC3O)C2)c1 (stereo in doubt) [Example 453, 2-((2-chloro-5-cyano-3-(1-((3S,4S)-4-hydroxy-1,1-dioxidotetrahydrothiophen-3-yl)hexahydro-1H-pyrrolo[3,2-c]pyridin-5(6H)-yl)phenyl)amino)-4-(cyclopropylamino)imidazo[2,1-f][1,2,4]triazine-7-carbonitrile]
27 | 0.42 nM | N#Cc1cc(Nc2nc(NC3CC3)c3ncc(C#N)n3n2)c(Cl)c(N2CCC(C(CO)CO)CC2)c1 [Example 526, 2-((2-chloro-5-cyano-3-(4-(1,3-dihydroxypropan-2-yl)piperidin-1-yl)phenyl)amino)-4-(cyclopropylamino)imidazo[2,1-f][1,2,4]triazine-7-carbonitrile]
28 | 5.48 nM | N#Cc1cc(Nc2nc(NC3CC3)c3ncc(C#N)n3n2)c(Cl)c(N2CCN(C3CN(C(=O)[C@@H]4C[C@@H](O)CN4)C3)CC2)c1 [Example 498, 2-{[2-chloro-5-cyano-3-(4-{1-[(2S,4R)-4-hydroxypyrrolidine-2-carbonyl]azetidin-3-yl}piperazin-1-yl)phenyl]amino}-4-(cyclopropylamino)imidazo[2,1-f][1,2,4]triazine-7-carbonitrile]
29 | 2.98 nM | COCCN1CCN(Cc2cc(C#N)cc(Nc3nc(NC4CC4)c4ncc(C#N)n4n3)c2Cl)CC1 [Example 476, 2-[(2-chloro-5-cyano-3-{[4-(2-methoxyethyl)piperazin-1-yl]methyl}phenyl)amino]-4-(cyclopropylamino)imidazo[2,1-f][1,2,4]triazine-7-carbonitrile]
